Results as given in patent US8765786B2, “1-substituted indazole derivative” (Dainippon Sumitomo Pharma Co., Ltd., priority 2012, dated 2014).

The molecules below were run against T1, human α7 nAChR (Homo sapiens, UniProt P36544) (assay: Evaluation of PAM activity with human α7 nACh receptor stably expressing cells (aequorin luminescence, FDSS7000)). Conditions: result in words; ratio of RLU (Max-Min) to control wells, ACh EC20.
T1 construct: expressed in transfected cells; host or cells: GH4C1 cells derived from rat pituitary (ATCC CCL-82.2)
Assay type: cell-based
How it was run: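 PAM activity defined as RLU (Max-Min) of compound wells over control wells, from 465 nm aequorin luminescence tracked 138 s after ACh challenge. Host: GH4C1 (rat pituitary) stably co-expressing human α7 nAChR and aequorin, pre-loaded 4 h with 4 μmol/L luminescent substrate.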

T1 sequence (P36544 23-502): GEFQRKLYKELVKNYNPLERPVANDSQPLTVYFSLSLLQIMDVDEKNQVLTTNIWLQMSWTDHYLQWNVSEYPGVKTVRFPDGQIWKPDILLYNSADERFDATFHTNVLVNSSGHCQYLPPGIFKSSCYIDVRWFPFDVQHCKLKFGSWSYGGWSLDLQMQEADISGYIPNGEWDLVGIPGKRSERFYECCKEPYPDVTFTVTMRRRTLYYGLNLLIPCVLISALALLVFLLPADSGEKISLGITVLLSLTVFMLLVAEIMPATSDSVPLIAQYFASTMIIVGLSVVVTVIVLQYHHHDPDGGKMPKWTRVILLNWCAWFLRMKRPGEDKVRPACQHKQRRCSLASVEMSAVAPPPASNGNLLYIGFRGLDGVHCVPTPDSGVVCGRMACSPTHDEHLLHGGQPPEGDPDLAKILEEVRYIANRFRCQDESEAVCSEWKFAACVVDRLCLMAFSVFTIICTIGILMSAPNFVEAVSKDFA

For `Cc1ccc2c(cnn2C2CCN(C(=O)NC3CCC(F)(F)CC3)CC2)c1` [Example 13, N-(4,4-difluorocyclohexyl)-4-(5-methyl-1H-indazol-1-yl)piperidine-1-carboxamide], the “PAM activity for α7 nAChR” value was “stronger PAM activity than others”.

Same assay, conditions: test compound 10 μmol/L; ACh added at EC20; ratio of RLU (Max-Min) of test wells to control wells

Point of comparison: `COC(C)c1c(C)ccc2c1cnn2C1CCN(C(=O)NC2CCC(F)(F)CC2)CC1` (stereo not drawn) [Example 232], “α7PAM (%) @ 10 μmol/L” value 860%. Against it:
- O=C(NC1CCC(F)(F)CC1)N1CCC(n2ncc3cc(N4CCCC4)ccc32)CC1 [Example 224] — lower, 286%
- CCc1ccc2c(c1)c(OC(C)C)nn2C1CCN(C(=O)NC2CCCCC2)CC1 [Example 153] — lower, 386%
- COc1ccc2c(cnn2C2CCN(C(=O)NC3CCCC3(F)F)CC2)c1 (stereo not drawn) [Example 88] — higher, 1063%
- CCOc1cccc2c1cnn2C1CCN(C(=O)N[C@H]2CC[C@@H](OC)CC2)CC1 [Example 184] — lower, 200%
- [2H]C([2H])([2H])O[C@H]1CC[C@H](NC(=O)N2CCC(n3ncc4cc(C5CC5)ccc43)CC2)CC1 [Example 296, 4-(5-cyclopropyl-1H-indazol-1-yl)-N-{trans-4-[(^2H3)methoxy]cyclohexyl}piperidine-1-carboxamide] — higher, 1268%
- CCc1ccc2c(c1)c(OC(F)F)nn2C1CCN(C(=O)NC2CCOCC2)CC1 [Example 209] — lower, 266%
- CCc1c(OC)ccc2c1cnn2C1CCN(C(=O)NC2CCC(F)(F)CC2)CC1 [Example 287] — lower, 645%
- O=C(NCc1ccccc1)N1CCC(n2ncc3cc(C4CC4)ccc32)CC1 [Example 194] — lower, 278%
- CCOc1ccc2c(cnn2C2CCN(C(=O)N[C@H]3CC[C@H](OC)CC3)CC2)c1 [Example 30] — higher, 908%
- COCC1CCC(NC(=O)N2CCC(n3ncc4cc(Cl)ccc43)CC2)CC1 (stereo not drawn) [Example 237] — lower, 832%
- O=C(NC1CCCCC1)N1CCC(n2ncc3ccccc32)CC1 [Example 39] — higher, 1892%
- Cc1ccc2c(cnn2C2CCN(C(=O)NC3CCC(F)(F)CC3)CC2)c1F [Example 222] — lower, 638%
- COC1CCC(NC(=O)N2CCC(n3ncc4c(C)cccc43)CC2)CC1 (stereo not drawn) [Example 95] — lower, 133%
- Cc1c(OC(F)F)ccc2c1cnn2C1CCN(C(=O)NC2CCOCC2)CC1 [Example 294] — lower, 523%
- [2H]C([2H])([2H])O[C@H]1CC[C@H](NC(=O)N2CCC(n3ncc4cc(OC5CC5)ccc43)CC2)CC1 [Example 322] — lower, 639%
- COc1cccc2c1cnn2C1CCN(C(=O)NC2CCCCC2)CC1 [Example 181] — lower, 538%
- COC1CCC(NC(=O)N2CCC(n3ncc4cc(OC(C)C)ccc43)CC2)CC1 (stereo not drawn) [Example 47] — lower, 375%
- Cc1ccc2c(cnn2C2CCN(C(=O)NC3CCCC(F)(F)C3)CC2)c1 (stereo not drawn) [Example 82] — higher, 888%
- COC1CCC(NC(=O)N2CCC(n3ncc4c(C5CC5)cccc43)CC2)CC1 (stereo not drawn) [Example 37] — lower, 481%
- COc1ccc2c(cnn2C2CCN(C(=O)NC3CCC(F)(F)CC3)CC2)c1C [Example 278] — higher, 861%
- O=C(NC1CCCC1)N1CCC(n2ncc3cc(C4CC4)ccc32)CC1 [Example 171] — higher, 1382%
- O=C(NCc1ccc(C(F)(F)F)cc1)N1CCC(n2ncc3cc(C4CC4)ccc32)CC1 [Example 195] — lower, 232%
- CCc1nn(C2CCN(C(=O)NC3CCC(F)(F)CC3)CC2)c2ccccc12 [Example 53] — lower, 309%

Same assay, conditions: test compound 10 μmol/L; ACh added at EC20; ratio of RLU (Max-Min) of test wells to control wells; read-out: α7PAM (%) @ 10 μmol/L

Point of comparison: `O=C(NC1CCC(F)(F)CC1)N1CCC(n2ncc3cc(Cl)ccc32)CC1` [Example 34, 4-(5-chloro-1H-indazol-1-yl)-N-(4,4-difluorocyclohexyl)piperidine-1-carboxamide], activity at 10 µM 445%. Against it:
- O=C(NC1CCCOC1)N1CCC(n2ncc3cc(OC(F)(F)F)ccc32)CC1 (stereo not drawn) [Example 300, N-(tetrahydro-2H-pyran-3-yl)-4-[5-(trifluoromethoxy)-1H-indazol-1-yl]piperidine-1-carboxamide] — lower, 376%
